{"source": "patent US20240174679A1", "about": "“HETEROAROYL AMIDES AS LRRK2 INHIBITORS, PHARMACEUTICAL COMPOSITIONS, AND USES THEREOF” (MERCK SHARP & DOHME LLC, priority 2021, published 2024)"}
{"biological_target": "GST tagged truncated human mutant G2019S LRRK2 (Homo sapiens (Human), UniProt Q5S007, G2019S)", "sequence (Q5S007 970-2527 G2019S)": "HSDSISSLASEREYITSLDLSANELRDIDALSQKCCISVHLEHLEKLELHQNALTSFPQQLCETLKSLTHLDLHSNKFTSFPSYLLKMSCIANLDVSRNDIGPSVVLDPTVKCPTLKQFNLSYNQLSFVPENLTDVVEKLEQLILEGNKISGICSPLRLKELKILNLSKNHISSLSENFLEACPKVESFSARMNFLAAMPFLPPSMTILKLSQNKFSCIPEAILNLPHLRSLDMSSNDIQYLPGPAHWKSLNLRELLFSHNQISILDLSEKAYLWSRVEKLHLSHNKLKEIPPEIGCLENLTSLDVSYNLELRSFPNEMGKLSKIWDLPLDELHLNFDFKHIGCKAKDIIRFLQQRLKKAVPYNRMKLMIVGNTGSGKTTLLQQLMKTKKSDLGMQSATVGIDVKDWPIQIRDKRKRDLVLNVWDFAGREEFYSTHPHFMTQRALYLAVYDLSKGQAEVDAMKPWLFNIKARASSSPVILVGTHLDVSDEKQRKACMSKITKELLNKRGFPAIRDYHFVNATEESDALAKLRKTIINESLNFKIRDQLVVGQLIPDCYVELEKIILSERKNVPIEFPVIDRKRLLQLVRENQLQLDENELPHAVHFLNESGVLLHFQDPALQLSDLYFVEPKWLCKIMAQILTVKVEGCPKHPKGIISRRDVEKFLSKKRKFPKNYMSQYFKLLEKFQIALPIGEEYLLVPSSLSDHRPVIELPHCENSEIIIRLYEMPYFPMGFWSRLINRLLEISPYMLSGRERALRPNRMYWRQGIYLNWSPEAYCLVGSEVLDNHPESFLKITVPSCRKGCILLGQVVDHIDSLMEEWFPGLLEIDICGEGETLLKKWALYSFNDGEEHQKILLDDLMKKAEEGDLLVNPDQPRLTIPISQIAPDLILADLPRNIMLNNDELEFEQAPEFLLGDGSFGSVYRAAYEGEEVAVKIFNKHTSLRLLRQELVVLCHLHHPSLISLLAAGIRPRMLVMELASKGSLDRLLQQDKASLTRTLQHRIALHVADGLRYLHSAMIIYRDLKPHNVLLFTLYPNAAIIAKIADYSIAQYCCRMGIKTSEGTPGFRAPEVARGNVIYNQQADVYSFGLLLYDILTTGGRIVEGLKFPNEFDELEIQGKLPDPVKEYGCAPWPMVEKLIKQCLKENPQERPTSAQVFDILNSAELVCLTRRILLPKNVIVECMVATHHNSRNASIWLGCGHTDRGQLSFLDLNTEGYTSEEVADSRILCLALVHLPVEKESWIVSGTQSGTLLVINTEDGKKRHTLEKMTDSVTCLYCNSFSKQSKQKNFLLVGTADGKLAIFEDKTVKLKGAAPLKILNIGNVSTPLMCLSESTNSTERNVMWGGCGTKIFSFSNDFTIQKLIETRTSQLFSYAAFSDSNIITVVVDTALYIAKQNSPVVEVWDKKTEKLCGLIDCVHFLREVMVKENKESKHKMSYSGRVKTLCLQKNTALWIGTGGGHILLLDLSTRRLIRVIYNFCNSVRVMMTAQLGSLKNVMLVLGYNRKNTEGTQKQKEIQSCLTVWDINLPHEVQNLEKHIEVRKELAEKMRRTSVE", "assay": "LRRK2 Km ATP LanthaScreen Assay", "type": "biochemical", "conditions": "134 μM ATP (Km ATP), LRRKtide substrate, negative log of mean IC50 (molar)", "summary_of_the_method": "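Truncated GST-tagged G2019S LRRK2 (1.25 nM enzyme solution) was preincubated with compound for 15 min at rt, then reacted for 90 min with fluorescein-LRRKtide and 134 μM ATP (Km) in Tris pH 8.5/MgCl2 buffer. After an EDTA stop, TR-FRET used a Tb anti-pERM antibody (520/495 nm ratio). IC50 came from a 4-parameter fit and is reported as pIC50, mean of several runs.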"}
{"smiles": "CCn1cc(NC(=O)c2csc(-c3cn[nH]c3)n2)c(C#N)n1", "note": "[Example 1-10, N-(3-cyano-1-ethyl-1H-pyrazol-4-yl)-2-(1H-pyrazol-4-yl)-1,3-thiazole-4-carboxamide]", "LRRK2 pIC50": 7.30}
{"smiles": "O=C(Nc1cnn(C[C@H]2CCNC2)c1)c1csc(-c2cn[nH]c2)n1", "note": "[Example 7-26, 2-(1H-pyrazol-4-yl)-N-(1-{[(3S)-pyrrolidin-3-yl]methyl}-1H-pyrazol-4-yl)-1,3-thiazole-4-carboxamide]", "LRRK2 pIC50": 6.84}
{"smiles": "O=C(Nc1cn(CC2CC2)nc1C(F)F)c1csc(-c2cn[nH]c2)n1", "note": "[Example 7-33, N-[1-(cyclopropylmethyl)-3-(difluoromethyl)-1H-pyrazol-4-yl]-2-(1H-pyrazol-4-yl)-1,3-thiazole-4-carboxamide]", "LRRK2 pIC50": 8.13}
{"smiles": "CC1(C)CC(Cn2cc(NC(=O)c3csc(-c4cn[nH]c4)n3)cn2)C1", "note": "[Example 1-32, N-{1-[(3,3-dimethylcyclobu-tyl)methyl]-1H-pyrazol-4-yl}-2-(1H-pyrazol-4-yl)-1,3-thiazole-4-carboxamide]", "LRRK2 pIC50": 8.00}
{"smiles": "CN(C)C(=O)c1nn(C)cc1NC(=O)c1csc(-c2cn[nH]c2)n1", "note": "[Example 1-36, N-[3-(dimethylcarba-moyl)-1-methyl-1H-pyrazol-4-yl]-2-(1H-pyrazol-4-yl)-1,3-thiazole-4-carboxamide]", "LRRK2 pIC50": 7.25}
{"smiles": "O=C(Nc1cnn(CC2CCC2)c1)c1cccc(-c2cnn(Cc3ccncc3)c2)n1", "note": "[Example 9-6, N-[1-(cyclobutylmethyl)-1H-pyrazol-4-yl]-6-[1-(pyridin-4-ylmethyl)-1H-pyrazol-4-yl]pyridine-2-carboxamide]", "LRRK2 pIC50": 6.18}
{"smiles": "COCCn1cc(NC(=O)c2csc(-c3cn[nH]c3)n2)c(OC)n1", "note": "[Example 7-21, N-[3-methoxy-1-(2-methoxyethyl)-1H-pyrazol-4-yl]-2-(1H-pyrazol-4-yl)-1,3-thiazole-4-carboxamide]", "LRRK2 pIC50": 6.57}
{"smiles": "COc1nn(CC(F)(F)F)cc1NC(=O)c1csc(-c2cnn(S(C)(=O)=O)c2)n1", "note": "[Example 13-1, N-(3-Methoxy-1-(2,2,2-trifluoroethyl)-1H-pyrazol-4-yl)-2-(1-(methylsulfonyl)-1H-pyrazol-4-yl)thiazole-4-carboxamide]", "LRRK2 pIC50": 5.97}
{"smiles": "O=C(Nc1cn(C2CC2)nc1C(F)F)c1csc(-c2cn[nH]c2)n1", "note": "[Example 1-38, N-[1-cyclopropyl-3-(difluoromethyl)-1H-pyrazol-4-yl]-2-(1H-pyrazol-4-yl)-1,3-thiazole-4-carboxamide]", "LRRK2 pIC50": 8.23}
{"smiles": "Cn1cc(-c2nc(C(=O)Nc3cnn(CC4CCC4)c3)cs2)cn1", "note": "[Example 12-1, N-(1-(Cyclobutylmethyl)-1H-pyrazol-4-yl)-2-(1-methyl-1H-pyrazol-4-yl)thiazole-4-carboxamide]", "LRRK2 pIC50": 7.74}
{"smiles": "O=C(Nc1cnn(CC2CCC2)c1)c1cccc(-c2cccnc2)n1", "note": "[Example 9-34, N-[1-(cyclobutylmethyl)-1H-pyrazol-4-yl]-2,3′-bipyridine-6-carboxamide]", "LRRK2 pIC50": 6.90}
{"smiles": "CS(=O)(=O)CC1(Cn2cc(NC(=O)c3csc(-c4cn[nH]c4)n3)cn2)CCC1", "note": "[Example 1-44, N-[1-({1-[(methylsulfonyl)methyl]cyclobutyl}methyl)-1H-pyrazol-4-yl]-2-(1H-pyrazol-4-yl)-1,3-thiazole-4-carboxamide]", "LRRK2 pIC50": 7.91}
{"smiles": "CC(C)n1cc(NC(=O)c2csc(-c3cn[nH]c3)n2)c(C(F)F)n1", "note": "[Example 7-18, N-[3-(difluoromethyl)-1-(1-methylethyl)-1H-pyrazol-4-yl]-2-(1H-pyrazol-4-yl)-1,3-thiazole-4-carboxamide]", "LRRK2 pIC50": 7.72}
{"smiles": "COCCn1cc(NC(=O)c2csc(-c3cn[nH]c3)n2)cn1", "note": "[Example 7-22, N-[1-(2-methoxyethyl)-1H-pyrazol-4-yl]-2-(1H-pyrazol-4-yl)-1,3-thiazole-4-carboxamide]", "LRRK2 pIC50": 7.00}
{"smiles": "O=C(Nc1cnn(-c2ccncc2)c1)c1coc(-c2cn[nH]c2)n1", "note": "[Example 1-21, 2-(1H-pyrazol-4-yl)-N-(1-pyridin-4-yl-1H-pyrazol-4-yl)-1,3-oxazole-4-carboxamide]", "LRRK2 pIC50": 7.18}
{"smiles": "O=C(Nc1cnn(C2CCC2)c1)c1ccn(-c2ccccc2)n1", "note": "[Example 4-7, N-(1-cyclobutyl-1H-pyrazol-4-yl)-1-phenyl-1H-pyrazole-3-carboxamide]", "LRRK2 pIC50": 5.56}
{"smiles": "CC(C)n1cc(NC(=O)c2coc(-c3cn[nH]c3)n2)cn1", "note": "[Example 1-39, N-[1-(1-methylethyl)-1H-pyrazol-4-yl]-2-(1H-pyrazol-4-yl)-1,3-oxazole-4-carboxamide]", "LRRK2 pIC50": 6.36}
{"smiles": "O=C(Nc1cnn(CC2CCCO2)c1)c1csc(-c2cn[nH]c2)n1", "note": "(stereo not shown) [Example 7-13, 2-(1H-pyrazol-4-yl)-N-[1-(tetrahydrofuran-2-ylmethyl)-1H-pyrazol-4-yl]-1,3-thiazole-4-carboxamide]", "LRRK2 pIC50": 6.84}
{"smiles": "Cn1cc(NC(=O)c2csc(-c3cn[nH]c3)n2)c(-c2ccc(F)cc2)n1", "note": "[Example 1-11, N-[3-(4-fluorophenyl)-1-methy1-1H-pyrazol-4-yl]-2-(1H-pyrazol-4-yl)-1,3-thiazole-4-carboxamide]", "LRRK2 pIC50": 7.90}
{"smiles": "CC(=O)Nc1cccc(C(=O)Nc2cnn(C3CCC3)c2)n1", "note": "[Example 4-8, 6-(acetylamino)-N-(1-cyclobutyl-1H-pyrazol-4-yl)pyridine-2-carboxamide]", "LRRK2 pIC50": 6.33}
{"smiles": "N#Cc1cccc(-c2cccc(C(=O)Nc3cnn(CC4CCC4)c3)n2)c1", "note": "[Example 9-29, 6-(3-cyanophenyl)-N-[1-(cyclobutylmethyl)-1H-pyrazol-4-yl]pyridine-2-carboxamide]", "LRRK2 pIC50": 5.51}
{"smiles": "CC(C1CC1)n1cc(NC(=O)c2csc(-c3cn[nH]c3)n2)c(C(F)F)n1", "note": "(stereo not shown) [Example 3-1, N-(1-(1-Cyclopropylethyl)-3-(difluoromethyl)-1H-pyrazol-4-yl)-2-(1H-pyrazol-4-yl)thiazole-4-carboxamide]", "LRRK2 pIC50": 7.27}
{"smiles": "N#CC1(Cn2cc(NC(=O)c3csc(-c4cn[nH]c4)n3)cn2)CCNCC1", "note": "[Example 7-28, N-{1-[(4-cyanopiperidin-4-yl)methyl]-1H-pyrazol-4-yl}-2-(1H-pyrazol-4-yl)-1,3-thiazole-4-carboxamide]", "LRRK2 pIC50": 6.71}
{"smiles": "CC(C)n1cc(NC(=O)c2csc(-c3cn[nH]c3)n2)c(OCC(F)(F)F)n1", "note": "[Example 1-7, N-[1-(1-methylethyl)-3-(2,2,2-trifluoroethoxy)-1H-pyrazol-4-yl]-2-(1H-pyrazol-4-yl)-1,3-thiazole-4-carboxamide]", "LRRK2 pIC50": 7.17}
{"smiles": "COc1nn(C2CCC2)cc1NC(=O)c1csc(-c2cn[nH]c2)n1", "note": "[Example 1-22, N-(1-cyclobutyl-3-methoxy-1H-pyrazol-4-yl)-2-(1H-pyrazol-4-yl)-1,3-thiazole-4-carboxamide]", "LRRK2 pIC50": 7.76}
{"smiles": "Cc1n[nH]c(C)c1-c1cccc(C(=O)Nc2cnn(CC3CCC3)c2)n1", "note": "[Example 9-26, N-[1-(cyclobutylmethyl)-1H-pyrazol-4-yl]-6-(3,5-dimethyl-1H-pyrazol-4-yl)pyridine-2-carboxamide]", "LRRK2 pIC50": 6.09}
{"smiles": "O=C(Nc1cnn(C2CCC2)c1)c1cccc(-n2ccnc2)n1", "note": "[Example 4-17, N-(1-cyclobutyl-1H-pyrazol-4-yl)-6-(1H-imidazol-1-yl)picolinamide]", "LRRK2 pIC50": 5.91}
{"smiles": "Cn1cc(-c2nc(C(=O)Nc3cn(C4CCC4)nc3C3CC3)cs2)cn1", "note": "[Example 12-2, N-(1-cyclobutyl-3-cyclopropyl-1H-pyrazol-4-yl)-2-(1-methyl-1H-pyrazol-4-yl)-1,3-thiazole-4-carboxamide]", "LRRK2 pIC50": 7.76}
{"smiles": "COCCn1cc(NC(=O)c2csc(-c3cn[nH]c3)n2)c(C(F)F)n1", "note": "[Example 7-3, N-[3-(difluoromethyl)-1-(2-methoxyethyl)-1H-pyrazol-4-yl]-2-(1H-pyrazol-4-yl)-1,3-thiazole-4-carboxamide]", "LRRK2 pIC50": 7.27}
{"smiles": "Cc1nn(C2CCC2)cc1NC(=O)c1csc(-c2cn[nH]c2)n1", "note": "[Example 1-3, N-(1-Cyclobutyl-3-methyl-1H-pyrazol-4-yl)-2-(1H-pyrazol-4-yl)thiazole-4-carboxamide]", "LRRK2 pIC50": 7.83}
{"smiles": "Cc1nc(C(=O)Nc2cnn(C3CCC3)c2)ccc1C#N", "note": "[Example 4-2, 5-cyano-N-(1-cyclobutyl-1H-pyrazol-4-yl)-6-methylpyridine-2-carboxamide]", "LRRK2 pIC50": 5.07}
{"smiles": "Cc1nn(C(F)F)cc1NC(=O)c1csc(-c2cn[nH]c2)n1", "note": "[Example 1-5, N-[1-(difluoromethyl)-3-methyl-1H-pyrazol-4-yl]-2-(1H-pyrazol-4-yl)-1,3-thiazole-4-carboxamide]", "LRRK2 pIC50": 7.08}
{"smiles": "Cc1nn(C2CCC2)cc1NC(=O)c1csc(-c2cnn(C)c2)n1", "note": "[Example 12-5, N-(1-cyclobutyl-3-methyl-1H-pyrazol-4-yl)-2-(1-methyl-1H-pyrazol-4-yl)-1,3-thiazole-4-carboxamide]", "LRRK2 pIC50": 7.30}
{"smiles": "CC(C)Nc1nc(C(=O)Nc2cnn(C3CCC3)c2)cs1", "note": "[Example 4-3, N-(1-cyclobutyl-1H-pyrazol-4-yl)-2-[(1-methylethyl)amino]-1,3-thiazole-4-carboxamide]", "LRRK2 pIC50": 6.19}
{"smiles": "COc1nn(CC2CCC2)cc1NC(=O)c1csc(-c2cn[nH]c2)n1", "note": "[Example 7-19, N-[1-(cyclobutylmethyl)-3-methoxy-1H-pyrazol-4-yl]-2-(1H-pyrazol-4-yl)-1,3-thiazole-4-carboxamide]", "LRRK2 pIC50": 7.80}
{"smiles": "O=C(Nc1cnn(CCC2CCNCC2)c1)c1csc(-c2cn[nH]c2)n1", "note": "[Example 7-32, N-{1-[2-(piperidin-4-yl)ethyl]-1H-pyrazol-4-yl}-2-(1H-pyrazol-4-yl)-1,3-thiazole-4-carboxamide]", "LRRK2 pIC50": 7.38}
{"smiles": "Cn1cnc(-c2nc(C(=O)Nc3cnn(C4CCC4)c3)cs2)c1", "note": "[Example 9-9, N-(1-cyclobutyl-1H-pyrazol-4-yl)-2-(1-methyl-1H-imidazol-4-yl)-1,3-thiazole-4-carboxamide]", "LRRK2 pIC50": 8.04}
